# Read-outs that look alike come from different tables or passages of the source.
# How the values were obtained:
# [1] = test system: human non-small cell lung cancer cell strain A549; assay: MTT proliferation inhibition, A549; format: cell-based; conditions: A549 cells, 48 h, read-out: Inhibitory activity (IC50) against proliferation, A549
# Protocol: (§1) The anti-tumor activity of the compounds of the present invention was determined by the method of methyl thiazolyl tetrazolium (MTT), Bardoxolone Methyl (CDDO-Me) being selected as a positive control medicament.
# (§2) Instruments: ultra-clean bench (SW-CJ-1FD, AIRTECH, Suzhou Antai Airtech Co. Ltd.), constant-temperature CO2 incubator (3111, Thermo, USA), inverted biomicroscope (IX71, OLYMPUS, Japan), ELISA microplate reader (Model 680, BIO-RAD, USA), platform shaker (Kylin-bell lab Instruments), autoclave (YXO.SG4I.280, Shanghai Huaxian), and centrifuge (SIGMA).
# (§3) Reagents: DMEM (GIBCO), fetal bovine serum (GIBCO), trypsin (SIGMA), and DMSO (SIGMA).
# (§4) Cell strains: human non-small cell lung cancer cell strain A549, human liver cancer cell strain HepG2, human breast cancer cell strain MCF-7, human renal tubular epithelial cells HK-2, rat embryonic cardiomyocytes H9C2 (all provided by Jiangsu KeyGEN BioTECH Co., Ltd.).
# (§5) Methods: the cryopreserved cell strains were resuscitated and cultured in a CO2 incubator at a constant temperature of 37° C. with liquid being changed once daily. Plating was carried out when the cell strains were in a good state in the exponential phase. 1 mL of 0.25% trypsin solution was added for digestion for 1-2 min. The cell status was observed under the microscope, and when the adherent cells became round and shrunk, the digestion solution was aspirated and 1-2 mL of a DMEM medium containing 10% fetal bovine serum was added to obtain a cell suspension, on which a cell count was performed. The amount of required cell suspension was calculated on the basis of 5×10^4 cells per well and the total number of wells. The cell suspension was inoculated on a 96-well plate at 100 μL/well, the surroundings being blocked with PBS, followed by incubation in a CO2 incubator at a constant temperature of 37° C. for 24 h.
# (§6) The test medicament, positive control medicament CDDO-Me, and blank control group DMSO were prepared in DMEM media to a final concentration of 5 μM/well, each medicament being placed in 3 replicate wells, followed by incubation for 48 h. The MTT reagent was added to the 96-well plate at 10 μL/well to further incubate for 4 h. The medium in the plate was aspirated and 100 μL of DMSO was added to each well, followed by shaking on the platform shaker for 10 min such that the crystals were dissolved. The absorbance of each well was examined by the ELISA microplate reader at a wavelength of 570 nm, and the cell inhibition rate was calculated according to the formula hereinafter. The mean value of three preliminary screening results was taken as the final inhibition rate thereof.
# (§7) Cell inhibition rate (%)=[(OD value of blank control−OD value of dosing cohort)/OD value of blank control group]×100%
# [2] = test system: human breast cancer cell strain MCF-7; assay: MTT proliferation inhibition, MCF-7; format: cell-based; conditions: 48 h, read-out: Inhibitory activity (IC50) against proliferation, MCF-7
# Protocol: as §1, §2, §3, §4, §5, §6, §7
# [3] = test system: human liver cancer cell strain HepG2; assay: MTT proliferation inhibition, HepG2; format: cell-based; conditions: HepG2 cells, 48 h, read-out: Inhibitory activity (IC50) against proliferation, HepG2
# Protocol: as §1, §2, §3, §4, §5
# The MTT reagent was added to the 96-well plate at 10 μL/well to further incubate for 4 h. The medium in the plate was aspirated and 100 μL of DMSO was added to each well, followed by shaking on the platform shaker for 10 min such that the crystals were dissolved. […] The mean value of three preliminary screening results was taken as the final inhibition rate thereof.
# as §7
# [4] = test system: human renal tubular epithelial cells HK-2; assay: MTT proliferation inhibition / toxicity, HK-2; format: cell-based; conditions: for IC50: HK-2 cells, MTT, 48 h, read-out: Inhibitory activity (IC50) against proliferation, HK-2; for toxicity to human renal tubular epithelial cells HK-2: statement in words
# Protocol: as §1, §2, §3, §4, §5, §6, §7
# [5] = test system: rat embryonic cardiomyocytes H9C2; assay: MTT proliferation inhibition / toxicity, H9C2; format: cell-based; conditions: for IC50: H9C2 cardiomyocytes, MTT, 48 h, read-out: Inhibitory activity (IC50) against proliferation, H9C2; for inhibitory activity against normal cardiomyocytes H9C2 relative to CDDO-Me: fraction of the inhibitory activity of CDDO-Me
# Protocol: as §1, §2, §3, §4, §5, §6, §7
# S180 ascitic tumor cells = assay: Inhibitory effect on tumors in S180 tumor-bearing mice; format: in vivo, ICR mice; conditions: for Tumor Mass / Tumor inhibition rate: 7 consecutive days; for Splenic index: 7 days
# Protocol: (§8) 1) Experimental animals: 72 female ICR mice between 6 and 8 weeks of age; experimental cells: S180 ascitic tumor cells.
# (§9) 8 animals were used as the normal group, and the rest of the mice were subjected to modeling by the following method.
# (§10) 2) Proliferation and passaging of S180 ascitic tumor cells: S180 ascitic tumor cells cryopreserved at −80° C. were thawed in a water bath at 37° C., placed in a 12 mL centrifuge tube, to which an appropriate amount of saline was added, and centrifuged at 1200 rpm for 5 min. The supernatant was discarded, then the cells were resuspended in 300 μL of saline and intraperitoneally injected into an ICR mouse. As the mouse's abdomen swelled up, intraperitoneal injection of the cells in a second ICR mouse was performed, and the cells were ready for inoculation when the abdomen thereof swelled up.
# (§11) 3) Inoculation of S180 tumor cells in the armpit of mice: S180 cells cultured to 2 passages were centrifuged and saline was added to obtain a concentration of 1×10^7 cells/mL. A volume of 100 μL of the cells were injected subcutaneously into armpit of mice. A mouse tumor-bearing model was developed.
# (§12) The model mice were divided into a tumor-bearing model group, a compound I-7 5 mg/kg group, a compound I-7 15 mg/kg group, a compound I-12 5 mg/kg group, a compound I-12 15 mg/kg group, a compound I-16 5 mg/kg group, a compound I-16 15 mg/kg group and a CDDO-Me 15 mg/kg group.
# (§13) There were 8 mice in each group.
# (§14) 4) Dosing: the medicaments were administered intragastrically when the tumor grew out.
# Compound I-7 of 5 mg/kg was administered in the compound I-7 5 mg/kg group;
# compound I-7 of 15 mg/kg was administered in the compound I-7 15 mg/kg group;
# compound I-12 of 5 mg/kg was administered in the compound I-12 5 mg/kg group;
# compound I-12 of 15 mg/kg was administered in the compound I-12 15 mg/kg group;
# compound I-16 of 5 mg/kg was administered in the compound I-16 5 mg/kg group;
# compound I-16 of 15 mg/kg was administered in the compound I-16 15 mg/kg group; and
# CDDO-Me of 15 mg/kg was administered in the CDDO-Me 15 mg/kg group.
# (§15) An equal volume of 0.5% croscarmellose sodium was administered to the normal group and the model group.
# (§16) The dosing was executed for 7 consecutive days. The mice were dissected the next day following the last dosing.
# (§17) Testing items: the body weight, spleen weight and tumor weight were measured. The spleens were ground on ice, followed by red blood cell lysis and incubation with FITC-CD11b, LY6C, and LY6G antibodies for 15 min, and then tested for CD11b+LY6Chi+ and CD11b+LY6G+ with flow cytometry.
# M-MDSC, PMN-MDSC = assay: Spleen M-MDSC / PMN-MDSC by flow cytometry in S180 tumor-bearing mice; format: in vivo, ICR mice; conditions: 7 days; for M-MDSC: CD11b+LY6Chi+; for PMN-MDSC: CD11b+LY6G+
# Protocol: as §8, §9, §10, §11, §12, §13, §14, §15, §16, §17
# [6] = Homo sapiens, MCF7, MCF-7 cells
SMILES,IC50 ([1]; Homo sapiens),"IC50 [2, 6]",IC50 ([3]; Homo sapiens),IC50 ([4]; Homo sapiens),toxicity to human renal tubular epithelial cells HK-2 [4],IC50 [5],inhibitory activity against normal cardiomyocytes H9C2 relative to CDDO-Me [5],Tumor Mass (S180 ascitic tumor cells; 5 mg/kg intragastric),Tumor inhibition rate (S180 ascitic tumor cells; 5 mg/kg intragastric),Splenic index (S180 ascitic tumor cells; 5 mg/kg intragastric),Tumor Mass (S180 ascitic tumor cells; 15 mg/kg intragastric),Tumor inhibition rate (S180 ascitic tumor cells; 15 mg/kg intragastric),Splenic index (S180 ascitic tumor cells; 15 mg/kg intragastric),"M-MDSC (M-MDSC, PMN-MDSC; 5 mg/kg intragastric)","PMN-MDSC (M-MDSC, PMN-MDSC; 5 mg/kg intragastric)","M-MDSC (M-MDSC, PMN-MDSC; 15 mg/kg intragastric)","PMN-MDSC (M-MDSC, PMN-MDSC; 15 mg/kg intragastric)",IC50 ([5]; Rattus norvegicus),further results
CC1(C)CC[C@]2(NC(=O)/C(C#N)=C/c3ccccc3)CC[C@]3(C)[C@H](C(=O)C=C4[C@@]5(C)C=C(C#N)C(=O)C(C)(C)[C@@H]5CC[C@]43C)[C@@H]2C1 [Compound I-7],315 ± 68 nM,2225 ± 22 nM,2720 ± 36 nM,1780 ± 259 nM,lower toxicity,3170 ± 1740 nM,approximately 1/10,1.53 ± 0.10 ^ g,42.17%,48.55 ± 4.62^##* 10*mg/g,1.45 ± 0.12 g,45.20%,47.03 ± 6.54^##* 10*mg/g,0.68 ± 0.22 %,8.72 ± 1.13 %,0.59 ± 0.09 %,6.34 ± 1.47 %,–,"IC50 ([5]; Rattus norvegicus, H9c2, 48 h): 3180 ± 1740 nM"
"COC(=O)[C@]12CCC(C)(C)C[C@H]1[C@H]1C(=O)C=C3[C@@]4(C)C=C(C#N)C(=O)C(C)(C)[C@@H]4CC[C@@]3(C)[C@]1(C)CC2 [CDDO-Me, 2-cyano-3,12-dioxoolean-1,9(11)-dien-28-oic acid methyl ester, reference compound]",–,–,–,–,–,308 ± 10 nM,–,–,–,–,1.67 ± 0.14 g,36.75%,53.61 ± 4.15 10*mg/g,–,–,1.15 ± 0.12 %,10.91 ± 1.62 %,–,IC50 [1]: 448 ± 12 nM; IC50 ([2]; MCF-7 cells): 728 ± 288 nM; IC50 [3]: 326 ± 21 nM; IC50 [4]: 335 ± 34 nM
CC1(C)CC[C@]2(NC(=O)/C=C(\C#N)c3ccc(C(F)(F)F)cc3)CC[C@]3(C)[C@H](C(=O)C=C4[C@@]5(C)C=C(C#N)C(=O)C(C)(C)[C@@H]5CC[C@]43C)[C@@H]2C1 [Compound I-16],888 ± 21 nM,958 ± 209 nM,934 ± 11 nM,618 ± 72 nM,lower toxicity,–,–,1.49 ± 0.17 ^ g,43.69%,47.86 ± 5.73^###* 10*mg/g,0.96 ± 0.14 g,63.60%,46.45 ± 5.20^###* 10*mg/g,0.71 ± 0.08 %,8.72 ± 2.09 %,0.40 ± 0.07 %,6.79 ± 1.55 %,108 ± 7 nM,–
CC1(C)CC[C@]2(NC(=O)/C(C#N)=C/c3ccc(Cl)cc3)CC[C@]3(C)[C@H](C(=O)C=C4[C@@]5(C)C=C(C#N)C(=O)C(C)(C)[C@@H]5CC[C@]43C)[C@@H]2C1 [Compound I-12],761 ± 32 nM,1640 ± 462 nM,974 ± 58 nM,2430 ± 33 nM,lower toxicity,–,approximately 1/10,1.33 ± 0.11 g,49.55%,45.99 ± 7.68^##* 10*mg/g,0.66 ± 0.14 g,74.96%,44.37 ± 5.27^###** 10*mg/g,0.63 ± 0.13 %,8.86 ± 1.53 %,0.38 ± 0.23 %,4.82 ± 0.62 %,3140 ± 1530 nM,–
